In ChEMBL document CHEMBL1909294, “Translating clinical findings into knowledge in drug safety evaluation--drug induced liver injury prediction system (DILIps)” (PLoS Comput Biol, 2011):

Tests used:
[1] = test system: Hepatotoxicity;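 on HepSE Combined Scores: combined hepatic side effect score as listed in the training data of the Drug Induced Liver Injury Prediction System (DILIps)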;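 on HepSE cholecystitis: Cholecystitis-related hepatic side effect score drawn from the DILIps (drug-induced liver injury prediction) training data set; call rule not given here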; on HepSE hepatic failure: call rule not given here;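 on HepSE hepatic necrosis: score of hepatic side effects for hepatic necrosis, drawn from the training data of DILIps, a prediction system for drug-induced liver injury; call rule not given here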;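 on HepSE jaundice: Jaundice-related hepatic side-effect score drawn from the training data of the DILIps (drug-induced liver injury prediction system); call rule not given here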;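 on HepSE liver fatty: hepatic side effect score for fatty liver, taken from the DILIps training set for predicting drug-induced liver injury; call rule not given here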;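 on HepSE liver function tests abnormal: hepatic side effect score taken from the DILIps (drug-induced liver injury prediction system) training data, here covering abnormal liver function test findings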
[2] = test system: Hepatotoxicity; remark: listed apart in the source;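 on HepSE Combined Scores: combined hepatic side effect score as listed in the training data of the Drug Induced Liver Injury Prediction System (DILIps)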;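 on HepSE cholecystitis: Cholecystitis-related hepatic side effect score drawn from the DILIps (drug-induced liver injury prediction) training data set; call rule not given here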; on HepSE hepatic failure: call rule not given here;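 on HepSE hepatic necrosis: score of hepatic side effects for hepatic necrosis, drawn from the training data of DILIps, a prediction system for drug-induced liver injury; call rule not given here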;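 on HepSE jaundice: Jaundice-related hepatic side-effect score drawn from the training data of the DILIps (drug-induced liver injury prediction system); call rule not given here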;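 on HepSE liver function tests abnormal: hepatic side effect score taken from the DILIps (drug-induced liver injury prediction system) training data, here covering abnormal liver function test findings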
[3] = test system: Hepatotoxicity; remark: listed apart in the source;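 on HepSE Combined Scores: combined hepatic side effect score as listed in the training data of the Drug Induced Liver Injury Prediction System (DILIps)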;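 on HepSE cholecystitis: Cholecystitis-related hepatic side effect score drawn from the DILIps (drug-induced liver injury prediction) training data set; call rule not given here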; on HepSE hepatic failure: call rule not given here;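 on HepSE hepatic necrosis: score of hepatic side effects for hepatic necrosis, drawn from the training data of DILIps, a prediction system for drug-induced liver injury; call rule not given here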;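 on HepSE jaundice: Jaundice-related hepatic side-effect score drawn from the training data of the DILIps (drug-induced liver injury prediction system); call rule not given here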;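 on HepSE liver function tests abnormal: hepatic side effect score taken from the DILIps (drug-induced liver injury prediction system) training data, here covering abnormal liver function test findings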
[4] = test system: Hepatotoxicity; remark: listed apart in the source;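 on HepSE Combined Scores: combined hepatic side effect score as listed in the training data of the Drug Induced Liver Injury Prediction System (DILIps)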;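 on HepSE cholecystitis: Cholecystitis-related hepatic side effect score drawn from the DILIps (drug-induced liver injury prediction) training data set; call rule not given here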; on HepSE hepatic failure: call rule not given here;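 on HepSE hepatic necrosis: score of hepatic side effects for hepatic necrosis, drawn from the training data of DILIps, a prediction system for drug-induced liver injury; call rule not given here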;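 on HepSE jaundice: Jaundice-related hepatic side-effect score drawn from the training data of the DILIps (drug-induced liver injury prediction system); call rule not given here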;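 on HepSE liver function tests abnormal: hepatic side effect score taken from the DILIps (drug-induced liver injury prediction system) training data, here covering abnormal liver function test findings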
[5] = test system: Hepatotoxicity; remark: listed apart in the source; on HepSE hepatic failure: call rule not given here
[6] = test system: Hepatotoxicity; remark: listed apart in the source; on HepSE hepatic failure: call rule not given here
[7] = test system: Hepatotoxicity; remark: listed apart in the source
[8] = test system: Hepatotoxicity; remark: listed apart in the source
[9] = test system: Hepatotoxicity; remark: listed apart in the source
[10] = test system: Hepatotoxicity; remark: listed apart in the source
[11] = test system: Hepatotoxicity; remark: listed apart in the source
[12] = test system: Hepatotoxicity; remark: listed apart in the source
[13] = test system: Hepatotoxicity; remark: listed apart in the source
[14] = test system: Hepatotoxicity; remark: listed apart in the source

SMILES	HepSE_cholecystitis [1]	HepSE_hepatic necrosis [2]	HepSE_liver function tests abnormal [3]	HepSE_Combined Scores [4]	HepSE_jaundice [5]	HepSE_bilirubinemia [6]	HepSE_hepatic failure [7]	HepSE_liver fatty [8]	HepSE_elevated liver function tests [9]	HepSE_hepatomegaly [10]	HepSE_cirrhosis [11]	HepSE_hepatitis [12]	HepSE_cholelithiasis [13]	HepSE_liver disease [14]	other results
O=C(O)O [BICARBONATE]															HepSE_cholecystitis ([1]; Liver): 0; HepSE_hepatic necrosis ([2]; Liver): 0; HepSE_liver function tests abnormal ([3]; Liver): 0; HepSE_Combined Scores ([4]; Liver): 0; HepSE_jaundice ([5]; Liver): 0; HepSE_bilirubinemia ([6]; Liver): 0; HepSE_hepatic failure ([7]; Liver): 0; HepSE_liver fatty ([8]; Liver): 0; HepSE_elevated liver function tests ([9]; Liver): 0; HepSE_hepatomegaly ([10]; Liver): 0; HepSE_cirrhosis ([11]; Liver): 0; HepSE_hepatitis ([12]; Liver): 0; HepSE_cholelithiasis ([13]; Liver): 0; HepSE_liver disease ([14]; Liver): 0
C[C@@H]1C[C@H]2[C@H]3[C@H]([C@@H](O)C[C@]2(C)[C@@]1(O)C(=O)CO)[C@@]1(C)C=CC(=O)C=C1C[C@H]3Cl [ALCLOMETASONE]	0	0	0	0	0	0	0	0	0	0	0	0	0	0	
N=C(N)NCCC[C@H](N)C(=O)O [ARGININE]	0	0	0	0	0	0	0	0	0	0	0	0	0	0	
N[C@@H](Cc1cc(I)c(Oc2ccc(O)c(I)c2)c(I)c1)C(=O)O [LIOTHYRONINE]	0	0	0	0	0	0	0	0	0	0	0	0	0	0	
O=C(O)c1cc(-c2ccc(F)cc2F)ccc1O [DIFLUNISAL]															HepSE_cholecystitis ([1]; Liver): 0; HepSE_hepatic necrosis ([2]; Liver): 0; HepSE_liver function tests abnormal ([3]; Liver): 0; HepSE_Combined Scores ([4]; Liver): 2; HepSE_jaundice ([5]; Liver): 1; HepSE_bilirubinemia ([6]; Liver): 0; HepSE_hepatic failure ([7]; Liver): 0; HepSE_liver fatty ([8]; Liver): 0; HepSE_elevated liver function tests ([9]; Liver): 0; HepSE_hepatomegaly ([10]; Liver): 0; HepSE_cirrhosis ([11]; Liver): 0; HepSE_hepatitis ([12]; Liver): 1; HepSE_cholelithiasis ([13]; Liver): 0; HepSE_liver disease ([14]; Liver): 0
CCCCC(=O)N(Cc1ccc(-c2ccccc2-c2nnn[nH]2)cc1)[C@H](C(=O)O)C(C)C	0	0	0	1	0	0	0	0	0	0	0	1	0	0	
CC(C)NCC(O)COc1cccc2[nH]ccc12 (stereo unspecified) [PINDOLOL]	0	0	0	0	0	0	0	0	0	0	0	0	0	0	
CNS(=O)(=O)Cc1ccc2[nH]cc(CCN(C)C)c2c1	0	0	1	2	0	0	0	0	1	0	0	0	0	0	
O=C1[C@H](CC[C@H](O)c2ccc(F)cc2)[C@@H](c2ccc(O)cc2)N1c1ccc(F)cc1 [EZETIMIBE]	1	0	0	3	0	0	0	0	0	0	0	1	1	0	
